The results in this text go back to patent publication US8455475B2 (Gruenenthal GmbH, priority 2009, dated 2013).

The target of this assay is T1, rat B1R (bradykinin receptor 1) (Rattus norvegicus, UniProt P97583).
T1 construct: expressed in transfected cells; host or cells: CHO K1 cells
T1 sequence (P97583 1-337): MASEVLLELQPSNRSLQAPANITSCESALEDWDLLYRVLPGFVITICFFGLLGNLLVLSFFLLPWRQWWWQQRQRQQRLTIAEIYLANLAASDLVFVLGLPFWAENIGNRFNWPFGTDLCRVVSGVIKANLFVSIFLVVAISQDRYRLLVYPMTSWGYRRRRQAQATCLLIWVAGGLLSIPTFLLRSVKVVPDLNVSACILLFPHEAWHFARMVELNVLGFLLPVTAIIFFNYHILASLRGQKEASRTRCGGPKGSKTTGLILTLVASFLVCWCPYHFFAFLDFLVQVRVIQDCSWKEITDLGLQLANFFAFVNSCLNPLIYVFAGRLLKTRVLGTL
The assay is described as follows: FLIPR Ca2+ assay (Fluo-4) on CHO K1 cells stably transfected with the B1R gene of the rat (rB1R cells): % inhibition at 10 μM / IC50, agonist Des-Arg9-bradykinin. In kind it is cell-based. The note with it: CHO-K1, rat B1R. In short, it runs like this: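 Peak fluorescence counts read on FLIPR (λex 488, λem 540 nm) after two additions: compound first, then agonist at EC80 after 10–20 min. Human line challenged with Lys-Des-Arg9-bradykinin, rat line with Des-Arg9-bradykinin. Suppression of Ca2+ inflow expressed as % of maximum inhibition.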

As to `N#Cc1cccc(CN2CCC3(CC2)CCN(C(=O)c2ccc4c(c2)C(NC(=O)c2cc(C(F)(F)F)ccc2Cl)CC4)C3)c1` (stereo not shown) [IND_CC-659, 2-Chloro-N-[6-[8-[(3-cyano-phenyl)-methyl]-2,8-diazaspiro[4.5]decane-2-carbonyl]-2,3-dihydro-1H-inden-1-yl]-5-(trifluoromethyl)-benzamide], the inhibition (commonly the change of the read-out against control, counted positive when it falls) at 10 µM was determined as 81%.
The value for `N#Cc1ccccc1S(=O)(=O)N1CCC2(CCN(C(=O)c3ccc4c(c3)C(NC(=O)c3ccccc3Cl)CC4)C2)CC1` (stereo not shown) [IND_CC-501, 2-Chloro-N-[6-[8-[(2-cyano-phenyl)sulfonyl]-2,8-diazaspiro[4.5]decane-2-carbonyl]-2,3-dihydro-1H-inden-1-yl]-benzamide] was 56%; that for `CN(C(=O)c1ccccc1Cl)C1CCc2ccc(C(=O)N3CCC4(CCN(Cc5ccccc5C#N)CC4)C3)cc21` (stereo not shown) [IND_CC-505, 2-Chloro-N-[6-[8-[(2-cyano-phenyl)-methyl]-2,8-diazaspiro[4.5]decane-2-carbonyl]-2,3-dihydro-1H-inden-1-yl]-N-methyl-benzamide] was 67%; that for `O=C(NC1CCc2ccc(C(=O)N3CCC4(CCN(CCCc5cccc(F)c5)CC4)C3)cc21)c1cccc(Cl)c1Cl` (stereo not shown) [IND_CC-750, 2,3-Dichloro-N-[6-[8-[3-(3-fluorophenyl)-propyl]-2,8-diazaspiro[4.5]decane-2-carbonyl]-2,3-dihydro-1H-inden-1-yl]-benzamide] was 99%.
The result for `O=C(c1ccc2c(c1)C(N(C(=O)c1ccccc1Cl)C1CC1)CC2)N1CCC2(CCN(Cc3ccc(F)cc3Cl)CC2)C1` (stereo not shown) [IND_CC-537, 2-Chloro-N-[6-[8-[(2-chloro-4-fluoro-phenyl)-methyl]-2,8-diazaspiro[4.5]-decane-2-carbonyl]-2,3-dihydro-1H-inden-1-yl]-N-cyclopropyl-benzamide] reads 62%; that for `Cc1cc(C(=O)N2CCC3(CCN(C(=O)c4ccc5c(c4)C(NC(=O)c4ccccc4Cl)CC5)CC3)CC2)n(C(C)(C)C)n1` (stereo not shown) [IND_CC-602, N-[6-[9-(2-tert-Butyl-5-methyl-2H-pyrazole-3-carbonyl)-3,9-diazaspiro-[5.5]undecane-3-carbonyl]-2,3-dihydro-1H-inden-1-yl]-2-chloro-benzamide], 95%; that for `O=C(c1ccc2c(c1)C(NS(=O)(=O)Cc1ccccc1F)CC2)N1CCC2(CC1)CCN(c1ccncc1)CC2` (stereo not shown) [IND_CC-349, 1-(2-Fluorophenyl)-N-[6-(9-pyridin-4-yl-3,9-diazaspiro[5.5]undecane-3-carbonyl)-2,3-dihydro-1H-inden-1-yl]-methanesulfonic acid amide], 105%.
The value for `N#Cc1ccccc1CN1CCC2(CC1)CCN(C(=O)c1ccc3c(c1)C(NC(=O)c1ccccc1Cl)CC3)C2` (stereo not shown) [IND_CC-563, 2-Chloro-N-[6-[8-[(2-cyano-phenyl)-methyl]-2,8-diazaspiro[4.5]decane-2-carbonyl]-2,3-dihydro-1H-inden-1-yl]-benzamide] was 92%; that for `CN(C(=O)c1ccc(F)cc1C(F)(F)F)C1CCc2ccc(C(=O)N3CCC4(CC3)CCN(c3ccncc3)CC4)cc21` (stereo not shown) [IND_CC-380, 4-Fluoro-N-methyl-N-[6-(9-pyridin-4-yl-3,9-diazaspiro[5.5]undecane-3-carbonyl)-2,3-dihydro-1H-inden-1-yl]-2-(trifluoromethyl)-benzamide] was 103%.
For the compound `O=C(NC1CCc2ccc(C(=O)N3CCC4(CCN(Cc5c[nH]cn5)CC4)CC3)cc21)c1cc(C(F)(F)F)ccc1Cl` (stereo not shown) [IND_CC-639, 2-Chloro-N-[6-[9-(1H-imidazol-4-yl-methyl)-3,9-diazaspiro[5.5]undecane-3-carbonyl]-2,3-dihydro-1H-inden-1-yl]-5-(trifluoromethyl)-benzamide], the inhibition at 10 µM stood at 78%.
The result for `CC(C)(C)CC(=O)N1CCC2(CC1)CCN(C(=O)c1ccc3c(c1)C(NC(=O)c1sccc1Cl)CC3)C2` (stereo not shown) [IND_CC-583, 3-Chloro-N-[6-[8-(3,3-dimethyl-butanoyl)-2,8-diazaspiro[4.5]decane-2-carbonyl]-2,3-dihydro-1H-inden-1-yl]-thiophene-2-carboxylic acid amide] reads 75%; that for `COc1cccc(F)c1CN1CCC2(CC1)CCN(C(=O)c1ccc3c(c1)C(NC(=O)c1cc(C(F)(F)F)ccc1Cl)CC3)C2` (stereo not shown) [IND_CC-637, 2-Chloro-N-[6-[8-[(2-fluoro-6-methoxy-phenyl)-methyl]-2,8-diazaspiro[4.5]-decane-2-carbonyl]-2,3-dihydro-1H-inden-1-yl]-5-(trifluoromethyl)-benzamide], 69%; that for `O=C(NC1CCc2ccc(C(=O)N3CCC4(CCN(CCc5ccccc5)CC4)CC3)cc21)c1cc(Cl)ccc1F` (stereo not shown) [IND_CC-681, 5-Chloro-2-fluoro-N-[6-(9-phenethyl-3,9-diazaspiro[5.5]undecane-3-carbonyl)-2,3-dihydro-1H-inden-1-yl]-benzamide], 53%.
The value for `CN(C(=O)c1ccccc1F)C1CCc2ccc(C(=O)N3CCC4(CC3)CCN(c3ccncc3)CC4)cc21` (stereo not shown) [IND_CC-400, 2-Fluoro-N-methyl-N-[6-(9-pyridin-4-yl-3,9-diazaspiro[5.5]undecane-3-carbonyl)-2,3-dihydro-1H-inden-1-yl]-benzamide] was 103%; that for `O=C(NC1CCc2ccc(C(=O)N3CCC4(CCN(CCCc5ccc(F)cc5)CC4)C3)cc21)c1cc(Cl)ccc1F` (stereo not shown) [IND_CC-675, 5-Chloro-2-fluoro-N-[6-[8-[3-(4-fluorophenyl)-propyl]-2,8-diazaspiro[4.5]decane-2-carbonyl]-2,3-dihydro-1H-inden-1-yl]-benzamide] was 87%; that for `Cn1nnc2cc(CN3CCC4(CC3)CCN(C(=O)c3ccc5c(c3)C(NC(=O)c3cc(C(F)(F)F)ccc3Cl)CC5)C4)ccc21` (stereo not shown) [IND_CC-686, 2-Chloro-N-[6-[8-[(1-methyl-1H-benzotriazol-5-yl)-methyl]-2,8-diazaspiro[4.5]-decane-2-carbonyl]-2,3-dihydro-1H-inden-1-yl]-5-(trifluoromethyl)-benzamide] was 69%.
The result for `O=C(NC1CCc2ccc(C(=O)N3CCC4(CCN(Cc5ccccn5)CC4)CC3)cc21)c1ccccc1Cl` (stereo not shown) [IND_CC-509, 2-Chloro-N-[6-[9-(pyridin-2-yl-methyl)-3,9-diazaspiro[5.5]undecane-3-carbonyl]-2,3-dihydro-1H-inden-1-yl]-benzamide] reads 101%.
Consider `Cn1ccc2cc(S(=O)(=O)N3CCC4(CCN(C(=O)c5ccc6c(c5)C(NC(=O)c5ccccc5Cl)CC6)CC4)CC3)ccc21` (stereo not shown) [IND_CC-614, 2-Chloro-N-[6-[9-[(1-methyl-1H-indol-5-yl)sulfonyl]-3,9-diazaspiro[5.5]undecane-3-carbonyl]-2,3-dihydro-1H-inden-1-yl]-benzamide], for which the inhibition at 10 µM stood at 67%.
The result for `O=C(NC1CCc2ccc(C(=O)N3CCC4(CCN(Cc5ccc(F)c(F)c5)CC4)CC3)cc21)c1ccccc1Cl` (stereo not shown) [IND_CC-514, 2-Chloro-N-[6-[9-[(3,4-difluoro-phenyl)-methyl]-3,9-diazaspiro[5.5]undecane-3-carbonyl]-2,3-dihydro-1H-inden-1-yl]-benzamide] reads 102%; that for `O=C(NC1CCc2ccc(C(=O)N3CCC4(CCN(Cc5c(F)cccc5Cl)CC4)CC3)cc21)c1cc(C(F)(F)F)ccc1Cl` (stereo not shown) [IND_CC-670, 2-Chloro-N-[6-[9-[(2-chloro-6-fluoro-phenyl)-methyl]-3,9-diazaspiro[5.5]-undecane-3-carbonyl]-2,3-dihydro-1H-inden-1-yl]-5-(trifluoromethyl)benzamide], 67%.
The result for `O=C(NC1CCc2ccc(C(=O)N3CCC4(CCN(Cc5cccnc5)CC4)CC3)cc21)c1c(F)cccc1Cl` (stereo not shown) [IND_CC-786, 2-Chloro-6-fluoro-N-[6-[9-(pyridin-3-yl-methyl)-3,9-diazaspiro[5.5]undecane-3-carbonyl]-2,3-dihydro-1H-inden-1-yl]-benzamide] reads 104%; that for `O=C(NC1CCc2ccc(C(=O)N3CCC4(CCN(c5ccncc5)CC4)C3)cc21)c1ccc(C(F)(F)F)cn1` (stereo not shown) [IND_CC-396, N-[6-(8-Pyridin-4-yl-2,8-diazaspiro[4.5]decane-2-carbonyl)-2,3-dihydro-1H-inden-1-yl]-5-(trifluoromethyl)-pyridine-2-carboxylic acid amide], 81%; that for `O=C(NC1CCc2ccc(C(=O)N3CCC4(CCN(Cc5ccc(F)cc5F)CC4)CC3)cc21)c1ccccc1Cl` (stereo not shown) [IND_CC-516, 2-Chloro-N-[6-[9-[(2,4-difluoro-phenyl)-methyl]-3,9-diazaspiro[5.5]undecane-3-carbonyl]-2,3-dihydro-1H-inden-1-yl]-benzamide], 102%.
The result for `CC1(C)Cc2ccc(C(=O)N3CCC4(CC3)CCN(c3ccncc3)CC4)cc2C1NS(=O)(=O)c1ccc(C(F)(F)F)cc1Cl` (stereo not shown) [IND_CC-330, 2-Chloro-N-[2,2-dimethyl-6-(9-pyridin-4-yl-3,9-diazaspiro[5.5]undecane-3-carbonyl)-1,3-dihydro-inden-1-yl]-4-(trifluoromethyl)-benzenesulfonic acid amide] reads 67%.
With `O=C(NC1CCc2ccc(C(=O)N3CCC4(CC3)CCN(c3ccncc3)CC4)cc21)c1cnccn1` (stereo not shown) [IND_CC-397, N-[6-(9-Pyridin-4-yl-3,9-diazaspiro[5.5]undecane-3-carbonyl)-2,3-dihydro-1H-inden-1-yl]-pyrazine-2-carboxylic acid amide], the inhibition at 10 µM turned out to be 68%.
